# Measurements from publication PMC5218480 (PLoS ONE, 2017).
# Test system: MV-4-11 cells
# Assay: Gene expression microarray analysis (Affymetrix PrimeView) and GSEA
# Assay type: cell-based, human
# Set-up: RFU PODN (11730768_x_at) / Fold change /veh PODN (11730768_x_at) / RFU LINC00158 (11744669_a_at) / Fold change /veh LINC00158 (11744669_a_at) / RFU DUSP10 (11751237_a_at) / Fold change /veh DUSP10 (11751237_a_at) / RFU ID3 (11757404_x_at) / Fold change /veh ID3 (11757404_x_at) / RFU PLEKHG5 (11737974_s_at) / Fold change /veh PLEKHG5 (11737974_s_at) / RFU LRRC4B (11730491_at) / Fold change /veh LRRC4B (11730491_at) / RFU GIMAP4 (11747438_a_at) / Fold change /veh GIMAP4 (11747438_a_at) / RFU KRT8 (11758183_x_at) / Fold change /veh KRT8 (11758183_x_at) / RFU CNN1 (11734310_a_at) / Fold change /veh CNN1 (11734310_a_at) / RFU VPS37D (11726825_at) / Fold change /veh VPS37D (11726825_at) / RFU C10orf10 (11716522_x_at) / Fold change /veh C10orf10 (11716522_x_at) / RFU KIR2DL2 /// KIR2DL4 /// KIR2DL5A /// KIR2DL5B /// KIR2DS1 /// KIR2DS2 /// KIR2DS3 /// KIR2DS4 /// KIR3DL3 /// KIR3DL3 /// KIR3DS1 (11738374_at) / Fold change /veh KIR2DL2 /// KIR2DL4 /// KIR2DL5A /// KIR2DL5B /// KIR2DS1 /// KIR2DS2 /// KIR2DS3 /// KIR2DS4 /// KIR3DL3 /// KIR3DL3 /// KIR3DS1 (11738374_at) / RFU C1QL1 (11718748_at) / Fold change /veh C1QL1 (11718748_at) / RFU TMPRSS4 (11747572_a_at) / Fold change /veh TMPRSS4 (11747572_a_at) / RFU HAMP (11756126_x_at) / Fold change /veh HAMP (11756126_x_at) / RFU RNFT2 (11725882_a_at) / Fold change /veh RNFT2 (11725882_a_at) / RFU NR4A2 (11747474_a_at) / Fold change /veh NR4A2 (11747474_a_at) / RFU ABCC12 (11746883_a_at) / Fold change /veh ABCC12 (11746883_a_at) / RFU TMEM136 (11760407_x_at) / Fold change /veh TMEM136 (11760407_x_at) / RFU CLDN22 /// WWC2 (11732394_at) / Fold change /veh CLDN22 /// WWC2 (11732394_at) / RFU HLA-DPB1 (11760878_x_at) / Fold change /veh HLA-DPB1 (11760878_x_at) / RFU SPINT1 (11716480_a_at) / Fold change /veh SPINT1 (11716480_a_at) / RFU GAP43 (11754022_s_at) / Fold change /veh GAP43 (11754022_s_at) / RFU A4GNT (11735810_at) / Fold change /veh A4GNT (11735810_at) / RFU PRB3 (11715151_x_at) / Fold change /veh PRB3 (11715151_x_at) / RFU TUBB4B (11761932_at) / Fold change /veh TUBB4B (11761932_at) / RFU CAPN14 (11732068_a_at) / Fold change /veh CAPN14 (11732068_a_at) / RFU TMCC2 (11721928_a_at) / Fold change /veh TMCC2 (11721928_a_at) / RFU IRGQ (11745062_a_at) / Fold change /veh IRGQ (11745062_a_at) / RFU FAM174B (11720279_a_at) / Fold change /veh FAM174B (11720279_a_at) / RFU TMPRSS4 (11748680_a_at) / Fold change /veh TMPRSS4 (11748680_a_at) / RFU FAM212B (11763350_a_at) / Fold change /veh FAM212B (11763350_a_at) / RFU PLEKHG5 (11743358_a_at) / Fold change /veh PLEKHG5 (11743358_a_at) / RFU ZSCAN30 (11745921_a_at) / Fold change /veh ZSCAN30 (11745921_a_at) / RFU CMKLR1 (11741424_a_at) / Fold change /veh CMKLR1 (11741424_a_at) / RFU LOC101060620 /// MAPK8IP1 (11723275_at) / Fold change /veh LOC101060620 /// MAPK8IP1 (11723275_at) / RFU SPTSSB (11747773_x_at) / Fold change /veh SPTSSB (11747773_x_at) / RFU PRSS12 (11739890_at) / Fold change /veh PRSS12 (11739890_at) / RFU BIN1 (11741810_x_at) / Fold change /veh BIN1 (11741810_x_at) / RFU WNT11 (11732464_a_at) / Fold change /veh WNT11 (11732464_a_at) / RFU C10orf10 (11716521_a_at) / Fold change /veh C10orf10 (11716521_a_at) / RFU C5orf56 (11738089_at) / Fold change /veh C5orf56 (11738089_at) / RFU CYB561 (11721691_x_at) / Fold change /veh CYB561 (11721691_x_at) / RFU ANKRD19P (11752326_a_at) / Fold change /veh ANKRD19P (11752326_a_at) / RFU OR2T12 /// OR2T33 /// OR2T8 (11738714_s_at) / Fold change /veh OR2T12 /// OR2T33 /// OR2T8 (11738714_s_at) / RFU VCAN (11748164_a_at) / Fold change /veh VCAN (11748164_a_at) / RFU JSRP1 (11732532_at) / Fold change /veh JSRP1 (11732532_at) / RFU KRTAP10-11 (11738290_x_at) / Fold change /veh KRTAP10-11 (11738290_x_at) / RFU MYO3A (11730013_a_at) / Fold change /veh MYO3A (11730013_a_at) / RFU EBF3 (11725865_a_at) / Fold change /veh EBF3 (11725865_a_at) / RFU CAMK2N1 (11719241_x_at) / Fold change /veh CAMK2N1 (11719241_x_at) / RFU C5orf56 (11738088_a_at) / Fold change /veh C5orf56 (11738088_a_at) / RFU OLFML3 (11715873_a_at) / Fold change /veh OLFML3 (11715873_a_at) / RFU LOC100653217 /// NTM (11731650_a_at) / Fold change /veh LOC100653217 /// NTM (11731650_a_at) / RFU MAPK11 (11762145_a_at) / Fold change /veh MAPK11 (11762145_a_at) / RFU FIZ1 (11724087_x_at) / Fold change /veh FIZ1 (11724087_x_at) / RFU OASL (11726364_x_at) / Fold change /veh OASL (11726364_x_at) / RFU SOX15 (11748057_x_at) / Fold change /veh SOX15 (11748057_x_at) / RFU CD79A (11719716_a_at) / Fold change /veh CD79A (11719716_a_at) / RFU HIST1H1D (11736915_at) / Fold change /veh HIST1H1D (11736915_at) / RFU CASKIN2 (11723855_a_at) / Fold change /veh CASKIN2 (11723855_a_at) / RFU LOC730098 (11760151_x_at) / Fold change /veh LOC730098 (11760151_x_at) / RFU OR4N2 (11742367_at) / Fold change /veh OR4N2 (11742367_at) / RFU PRRT2 (11749266_a_at) / Fold change /veh PRRT2 (11749266_a_at) / RFU SNX32 (11753110_a_at) / Fold change /veh SNX32 (11753110_a_at) / RFU CDHR5 (11726645_a_at) / Fold change /veh CDHR5 (11726645_a_at) / RFU RCAN1 (11760418_a_at) / Fold change /veh RCAN1 (11760418_a_at) / RFU FAM167A (11723789_a_at) / Fold change /veh FAM167A (11723789_a_at) / RFU FAM26E (11764081_at) / Fold change /veh FAM26E (11764081_at) / RFU ISYNA1 (11749810_s_at) / Fold change /veh ISYNA1 (11749810_s_at) / RFU ACY1 (11761880_at) / Fold change /veh ACY1 (11761880_at) / RFU 11764098_at / Fold change /veh 11764098_at / RFU SAMD14 (11745864_x_at) / Fold change /veh SAMD14 (11745864_x_at) / RFU NPB (11741838_a_at) / Fold change /veh NPB (11741838_a_at) / RFU TMPRSS6 (11731388_a_at) / Fold change /veh TMPRSS6 (11731388_a_at) / RFU KRTAP10-2 (11738614_at) / Fold change /veh KRTAP10-2 (11738614_at) / RFU ARHGAP8 /// PRR5-ARHGAP8 (11727945_x_at) / Fold change /veh ARHGAP8 /// PRR5-ARHGAP8 (11727945_x_at) / RFU KRTAP5-7 /// NADSYN1 (11734609_at) / Fold change /veh KRTAP5-7 /// NADSYN1 (11734609_at) / RFU RASL12 (11751679_a_at) / Fold change /veh RASL12 (11751679_a_at) / RFU CDKN2B (11736163_a_at) / Fold change /veh CDKN2B (11736163_a_at) / RFU PRF1 (11729649_at) / Fold change /veh PRF1 (11729649_at) / RFU, ZNF638 /// ZNF638-IT1 / Fold change vs veh, ZNF638 /// ZNF638-IT1 / RFU, PANK3 / Fold change vs veh, PANK3 / RFU, SH3YL1 / Fold change vs veh, SH3YL1 / RFU, ZEB2 / Fold change vs veh, ZEB2 / RFU, NRIP1 / Fold change vs veh, NRIP1 / RFU, PTTG1IP / Fold change vs veh, PTTG1IP / RFU, CAPN2 / Fold change vs veh, CAPN2 / RFU, MED14 / Fold change vs veh, MED14 / RFU, SNORA58 / Fold change vs veh, SNORA58 / RFU, C1orf63 / Fold change vs veh, C1orf63 / RFU, LRRFIP1 / Fold change vs veh, LRRFIP1 / RFU, NDUFAF7 / Fold change vs veh, NDUFAF7 / RFU, SLC12A2 / Fold change vs veh, SLC12A2 / RFU, IBTK / Fold change vs veh, IBTK / RFU, ESF1 / Fold change vs veh, ESF1 / Fold change vs veh, TMEM50B / RFU, TAOK1 / Fold change vs veh, TAOK1 / RFU, ACBD3 / Fold change vs veh, ACBD3 / RFU, TMA16 / Fold change vs veh, TMA16 / RFU, RWDD3 / Fold change vs veh, RWDD3 / RFU, BCAT1 / Fold change vs veh, BCAT1 / RFU, EDEM3 / Fold change vs veh, EDEM3 / RFU, TMEM33 / Fold change vs veh, TMEM33 / RFU, WDR75 / Fold change vs veh, WDR75 / RFU, AHCTF1 / Fold change vs veh, AHCTF1 / RFU, TFRC / Fold change vs veh, TFRC / RFU, ZDHHC17 / Fold change vs veh, ZDHHC17 / RFU, NOM1 / Fold change vs veh, NOM1 / RFU, ARL8B / Fold change vs veh, ARL8B / RFU, ZBTB11 / Fold change vs veh, ZBTB11 / RFU, TAMM41 / Fold change vs veh, TAMM41 / RFU, KIAA1704 /// LOC100996395 / Fold change vs veh, KIAA1704 /// LOC100996395 / RFU, ING1 / Fold change vs veh, ING1 / RFU, TRMT61B / Fold change vs veh, TRMT61B / RFU, FUBP3 / Fold change vs veh, FUBP3 / RFU, TP53 / Fold change vs veh, TP53 / RFU, TNKS2 / Fold change vs veh, TNKS2 / RFU, ZFP14 / Fold change vs veh, ZFP14 / RFU, ACTR2 / Fold change vs veh, ACTR2 / RFU, PPP3R1 / Fold change vs veh, PPP3R1 / RFU, PIK3R1 / Fold change vs veh, PIK3R1 / RFU, HNRNPA1 / Fold change vs veh, HNRNPA1 / RFU, RNF170 / Fold change vs veh, RNF170 / RFU, ZNF28 / Fold change vs veh, ZNF28 / RFU, RNGTT / Fold change vs veh, RNGTT / RFU, OGT / Fold change vs veh, OGT / RFU, BRD1 / Fold change vs veh, BRD1 / RFU, MARS / Fold change vs veh, MARS / RFU, ZNF655 / Fold change vs veh, ZNF655 / RFU, FAHD1 / Fold change vs veh, FAHD1 / RFU, BDP1 / Fold change vs veh, BDP1 / RFU, LRRCC1 / Fold change vs veh, LRRCC1 / RFU, ARID1A / Fold change vs veh, ARID1A / RFU, ZNF146 / Fold change vs veh, ZNF146 / RFU, ZNF330 / Fold change vs veh, ZNF330 / RFU, GPN3 / Fold change vs veh, GPN3 / RFU, C9orf123 / Fold change vs veh, C9orf123 / RFU, N4BP2L2 / Fold change vs veh, N4BP2L2 / RFU, ARFIP1 / Fold change vs veh, ARFIP1 / RFU, FAM179B / Fold change vs veh, FAM179B / RFU, BCL10 / Fold change vs veh, BCL10 / RFU, UHRF1BP1L / Fold change vs veh, UHRF1BP1L / RFU, BET1 / Fold change vs veh, BET1 / RFU, CNOT2 / Fold change vs veh, CNOT2 / RFU, ZNF268 / Fold change vs veh, ZNF268 / Fold change vs veh, ZNF507 / RFU, DGCR2 / Fold change vs veh, DGCR2 / RFU, WDSUB1 / Fold change vs veh, WDSUB1 / Fold change vs veh, HSP90B1 /// MIR3652 / RFU, ADSS / Fold change vs veh, ADSS / RFU, GK / Fold change vs veh, GK / RFU, ZNF148 / Fold change vs veh, ZNF148 / RFU, TAF9 / Fold change vs veh, TAF9 / RFU, SLC1A5 / Fold change vs veh, SLC1A5 / RFU, SLMO2 / Fold change vs veh, SLMO2 / RFU, ABCC4 / Fold change vs veh, ABCC4 / RFU, LOC101060439 /// RAP1B / Fold change vs veh, LOC101060439 /// RAP1B / RFU, RFX7 / Fold change vs veh, RFX7 / RFU, GTPBP10 / Fold change vs veh, GTPBP10 / RFU, CNEP1R1 / Fold change vs veh, CNEP1R1 / RFU, BIVM-ERCC5 /// ERCC5 / Fold change vs veh, BIVM-ERCC5 /// ERCC5 / RFU, ILF3 / Fold change vs veh, ILF3 / RFU 11762660_at / Fold change /veh 11762660_at / RFU VCAN (11757783_s_at) / Fold change /veh VCAN (11757783_s_at) / RFU DDX43 (11728927_at) / Fold change /veh DDX43 (11728927_at) / RFU KRT8 (11758188_x_at) / Fold change /veh KRT8 (11758188_x_at) / RFU NKD1 (11759106_at) / Fold change /veh NKD1 (11759106_at) / RFU SRD5A1 (11742802_a_at) / Fold change /veh SRD5A1 (11742802_a_at) / RFU TPSAB1 /// TPSB2 (11721975_s_at) / Fold change /veh TPSAB1 /// TPSB2 (11721975_s_at) / RFU GSTM3 (11746129_a_at) / Fold change /veh GSTM3 (11746129_a_at) / RFU IL23R (11737362_x_at) / Fold change /veh IL23R (11737362_x_at) / RFU TMEM51 (11727254_a_at) / Fold change /veh TMEM51 (11727254_a_at) / RFU PIWIL2 (11732686_x_at) / Fold change /veh PIWIL2 (11732686_x_at) / RFU ORM1 (11744905_x_at) / Fold change /veh ORM1 (11744905_x_at) / RFU CCDC152 (11743942_at) / Fold change /veh CCDC152 (11743942_at) / RFU ECM1 (11717891_a_at) / Fold change /veh ECM1 (11717891_a_at) / RFU IL23R (11748794_a_at) / Fold change /veh IL23R (11748794_a_at) / RFU TNFAIP8L3 (11732012_x_at) / Fold change /veh TNFAIP8L3 (11732012_x_at) / RFU MBOAT4 (11741988_at) / Fold change /veh MBOAT4 (11741988_at) / RFU 11764193_at / Fold change /veh 11764193_at / RFU TMEM53 (11763286_at) / Fold change /veh TMEM53 (11763286_at) / RFU MAGEB2 (11727129_at) / Fold change /veh MAGEB2 (11727129_at) / RFU TMEM200A (11744735_a_at) / Fold change /veh TMEM200A (11744735_a_at) / RFU CCDC152 (11751479_a_at) / Fold change /veh CCDC152 (11751479_a_at) / RFU FAM211A (11726209_a_at) / Fold change /veh FAM211A (11726209_a_at) / RFU RGS16 (11746705_a_at) / Fold change /veh RGS16 (11746705_a_at) / RFU VCAN (11755009_s_at) / Fold change /veh VCAN (11755009_s_at) / RFU RHOB (11743442_s_at) / Fold change /veh RHOB (11743442_s_at) / RFU RGS16 (11720943_a_at) / Fold change /veh RGS16 (11720943_a_at) / RFU RGS16 (11720944_at) / Fold change /veh RGS16 (11720944_at) / RFU, VPS4B / Fold change vs veh, VPS4B / RFU, CREB1 / Fold change vs veh, CREB1 / RFU, DNAJC13 / Fold change vs veh, DNAJC13 / RFU, GNAQ / Fold change vs veh, GNAQ / RFU, CDK5R1 / Fold change vs veh, CDK5R1 / RFU, ZRANB3 / Fold change vs veh, ZRANB3 / RFU, CUL4A / Fold change vs veh, CUL4A / RFU, CCNY / Fold change vs veh, CCNY / RFU, UFL1 / Fold change vs veh, UFL1 / RFU, COG3 / Fold change vs veh, COG3 / RFU, DIAPH2 / Fold change vs veh, DIAPH2 / RFU, SKA2 / Fold change vs veh, SKA2 / RFU, AFF3 / Fold change vs veh, AFF3 / RFU, LMF1 / Fold change vs veh, LMF1 / RFU, IPO11 / Fold change vs veh, IPO11 / RFU, DFFB / Fold change vs veh, DFFB / RFU, FOXP1 / Fold change vs veh, FOXP1 / RFU, CARD8 / Fold change vs veh, CARD8 / RFU, STRN3 / Fold change vs veh, STRN3 / RFU, ADK / Fold change vs veh, ADK / RFU, RASSF2 / Fold change vs veh, RASSF2 / RFU, WIPF1 / Fold change vs veh, WIPF1 / RFU, LARP1B / Fold change vs veh, LARP1B / RFU, RASA1 / Fold change vs veh, RASA1 / RFU, RB1 / Fold change vs veh, RB1 / RFU, PPFIA1 / Fold change vs veh, PPFIA1 / RFU, MAT2A / Fold change vs veh, MAT2A / RFU, CCT5 / Fold change vs veh, CCT5 / RFU, WDR92 / Fold change vs veh, WDR92 / RFU, CUX1 / Fold change vs veh, CUX1 / RFU, TTC7A / Fold change vs veh, TTC7A / RFU, TMEM135 / Fold change vs veh, TMEM135 / RFU, DEPTOR / Fold change vs veh, DEPTOR / RFU, CPM / Fold change vs veh, CPM / RFU, DNAJB6 / Fold change vs veh, DNAJB6 / RFU, CACNA2D3 / Fold change vs veh, CACNA2D3 / RFU, DTX4 / Fold change vs veh, DTX4 / RFU, TFCP2 / Fold change vs veh, TFCP2 / RFU, GMCL1 /// GMCL1P1 / Fold change vs veh, GMCL1 /// GMCL1P1 / RFU, AEBP2 / Fold change vs veh, AEBP2 / RFU, SNHG1 /// SNORD22 /// SNORD25 /// SNORD26 /// SNORD27 /// SNORD28 /// SNORD29 /// SNORD31 / Fold change vs veh, SNHG1 /// SNORD22 /// SNORD25 /// SNORD26 /// SNORD27 /// SNORD28 /// SNORD29 /// SNORD31 / Fold change (Aza/veh), C12orf56 (ProbeSet 11735607_a_at) / Fold change (ACY-1035/veh), C12orf56 (ProbeSet 11735607_a_at) / Fold change (Aza/veh), FGFR1OP (ProbeSet 11751329_s_at) / Fold change (ACY-1035/veh), FGFR1OP (ProbeSet 11751329_s_at) / Fold change (Aza/veh), VPS36 (ProbeSet 11739960_a_at) / Fold change (ACY-1035/veh), VPS36 (ProbeSet 11739960_a_at) / RFU SYPL1 (11715823_x_at) / Fold change /veh SYPL1 (11715823_x_at) / RFU IGFBP7 (11715501_s_at) / Fold change /veh IGFBP7 (11715501_s_at) / RFU REEP3 (11722064_at) / Fold change /veh REEP3 (11722064_at) / RFU IGLL1 (11728026_x_at) / Fold change /veh IGLL1 (11728026_x_at): dose or concentration left out as unconfirmed
# Conditions: ProbeSet 11723944_a_at; LIST B
compound,measurement,value
Nc1ncn([C@@H]2O[C@H](CO)[C@@H](O)[C@H]2O)c(=O)n1 [azacitidine],"RFU, PTTG1IP",678.15 RFU
